In this assay the target is T1, PI4KB (Homo sapiens, UniProt Q9UBF8).
T1 construct: purified GST-PI4KB (PV5277, Thermo Fisher)
The class given is biochemical.

T1 sequence (Q9UBF8 2-816): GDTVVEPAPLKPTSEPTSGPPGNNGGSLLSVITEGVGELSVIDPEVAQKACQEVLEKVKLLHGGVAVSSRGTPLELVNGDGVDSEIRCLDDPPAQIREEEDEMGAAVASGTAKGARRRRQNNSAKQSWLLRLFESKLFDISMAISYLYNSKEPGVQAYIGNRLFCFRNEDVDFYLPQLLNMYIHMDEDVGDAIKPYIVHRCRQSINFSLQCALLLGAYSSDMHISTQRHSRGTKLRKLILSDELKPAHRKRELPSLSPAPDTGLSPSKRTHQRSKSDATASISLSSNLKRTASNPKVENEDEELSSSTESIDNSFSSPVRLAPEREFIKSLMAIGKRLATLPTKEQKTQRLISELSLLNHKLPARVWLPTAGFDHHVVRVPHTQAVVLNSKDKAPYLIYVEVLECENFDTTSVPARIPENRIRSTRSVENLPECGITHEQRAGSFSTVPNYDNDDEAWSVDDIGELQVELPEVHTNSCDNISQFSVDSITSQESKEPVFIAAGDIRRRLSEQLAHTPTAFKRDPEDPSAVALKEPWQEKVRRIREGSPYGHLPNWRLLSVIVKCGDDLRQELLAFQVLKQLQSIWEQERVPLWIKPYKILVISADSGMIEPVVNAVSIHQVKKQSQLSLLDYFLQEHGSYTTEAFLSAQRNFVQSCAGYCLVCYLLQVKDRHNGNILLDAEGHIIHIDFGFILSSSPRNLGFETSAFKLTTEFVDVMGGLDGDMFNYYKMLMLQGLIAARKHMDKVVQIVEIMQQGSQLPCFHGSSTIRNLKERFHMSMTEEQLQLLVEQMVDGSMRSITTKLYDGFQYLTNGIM

On to `COc1cc(/C=C/C(=O)OC[C@H]2O[C@H](O[C@]3(COC(=O)/C=C/c4ccc(O)cc4)O[C@H](COC(=O)/C=C/c4ccc(O)cc4)[C@@H](O)[C@@H]3OC(=O)/C=C/c3ccc(O)cc3)[C@H](O)[C@@H](O)[C@@H]2O)ccc1O` [VCB, vanicoside B], for which it took 5 µM to reach half-maximal inhibition (IC50).

Usually IC50 stands for the concentration that inhibits the measured activity by half. Read a high IC50 as a need for much substance.

For the origin of these results see article PMC10145814 (Viruses, 2023).
